Assay results as given in patent publication US20250368645A1, “BETA CARBOLINE ANALOGUES AS SELECTIVE AND BIASED KAPPA OPIOID RECEPTORS AGONISTS FOR TREATING VARIOUS ASSOCIATED PATHOPHYSIOLOGICAL CONDITIONS” (COUNCIL OF SCIENTIFIC AND INDUSTRIAL RESEARCH, priority 2022, published 2025).
Read-outs that look alike come from different tables or passages of the source.

Key:
[1] = molecular target: MOR (Homo sapiens, UniProt P35372); test: GloSensor assay at MOR; assay type: cell-based; details: given as Log IC50 (negative values)
[2] = molecular target: T1, human KOR (Homo sapiens, UniProt P41145); test: β-arrestin2 Tango assay in HTLA cells transiently transfected with human KOR; assay type: cell-based; details: Table 2, KOR; read-out: B-arrestin Tango Assay (pEC50) (converted)
Target sequence in this assay (P41145 whole entry, added parts left off): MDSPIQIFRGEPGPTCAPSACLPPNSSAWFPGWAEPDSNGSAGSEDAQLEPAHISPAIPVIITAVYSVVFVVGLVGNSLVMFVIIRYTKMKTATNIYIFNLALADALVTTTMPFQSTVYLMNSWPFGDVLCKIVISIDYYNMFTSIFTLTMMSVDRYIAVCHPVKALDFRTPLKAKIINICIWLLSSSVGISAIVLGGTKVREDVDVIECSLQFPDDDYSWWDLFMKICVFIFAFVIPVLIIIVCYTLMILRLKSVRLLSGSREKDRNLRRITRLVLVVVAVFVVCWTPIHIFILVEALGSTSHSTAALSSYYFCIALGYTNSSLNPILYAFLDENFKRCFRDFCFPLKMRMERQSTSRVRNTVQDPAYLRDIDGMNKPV

[3] = molecular target: T1, human KOR; test: GloSensor assay, Gi-mediated cAMP inhibition in HEK-293T cells transfected with human KOR; assay type: cell-based;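 on agonist at KOR (pIC50): value taken from a statement in the text not a table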
Target sequence in this assay (P41145 whole entry): as the sequence (P41145 whole entry, added parts left off) above

[4] = system: paclitaxel (PTX)-treated mice; test: Paclitaxel-induced peripheral neuropathy model; assay type: in vivo
[5] = system: SD rats; test: Neuropathic pain induced by chronic constriction injury (CCI) of sciatic nerve; assay type: in vivo, rat
[6] = system: C57Bl/6 mice; test: Tail flick assay for analgesia; assay type: in vivo
[7] = molecular target: DOR (Homo sapiens, UniProt P41143); test: GloSensor assay at DOR; assay type: cell-based; details: given as Log IC50 (negative values)
[8] = system: C57Bl/6 mice; test: Hargreaves assay for thermal analgesia after intracerebroventricular administration; assay type: in vivo; details: 10 nmol
[9] = 8abd 5 and 10 mg/kg p.o., duloxetine 10 mg/kg, 16 days
[10] = 8abd 10 mg/kg/day p.o., U50488 5 mg/kg/day i.p., 7 days, tested 16 hours after drug administration

Chain of MOR (P35372 whole entry): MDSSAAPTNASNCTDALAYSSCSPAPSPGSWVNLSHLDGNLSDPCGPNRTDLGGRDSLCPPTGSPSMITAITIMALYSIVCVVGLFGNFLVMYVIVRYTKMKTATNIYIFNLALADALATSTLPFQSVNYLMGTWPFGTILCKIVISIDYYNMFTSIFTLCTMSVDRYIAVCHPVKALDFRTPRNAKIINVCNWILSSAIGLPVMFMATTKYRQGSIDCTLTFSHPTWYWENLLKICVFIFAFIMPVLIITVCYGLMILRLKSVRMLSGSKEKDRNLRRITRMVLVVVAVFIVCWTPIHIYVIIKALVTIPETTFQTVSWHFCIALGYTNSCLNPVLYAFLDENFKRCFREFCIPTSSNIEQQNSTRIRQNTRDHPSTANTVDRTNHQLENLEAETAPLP
Chain of DOR (P41143 whole entry): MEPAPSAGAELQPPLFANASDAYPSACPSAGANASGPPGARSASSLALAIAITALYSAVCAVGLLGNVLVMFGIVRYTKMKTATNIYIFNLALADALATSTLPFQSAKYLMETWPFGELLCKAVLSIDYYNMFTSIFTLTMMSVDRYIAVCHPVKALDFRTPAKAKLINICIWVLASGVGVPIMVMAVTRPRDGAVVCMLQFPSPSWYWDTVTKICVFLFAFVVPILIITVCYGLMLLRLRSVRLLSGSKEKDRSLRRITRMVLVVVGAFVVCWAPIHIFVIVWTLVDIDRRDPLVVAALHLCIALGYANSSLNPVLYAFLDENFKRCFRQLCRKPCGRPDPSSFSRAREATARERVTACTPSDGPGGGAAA

## Fc1ccc(-n2c[n+]3ccc4c5ccccc5[nH]c4c3c2-c2ccc(Br)cc2)cc1.[Cl-] [8abd, 1-(4-Bromophenyl)-2-(4-fluorophenyl)-2,11-dihydrolmidazo[1′,5′:1,2]pyrido[3,4-b]indol-4-ium chloride]
[1]
  IC50: > 10000 nM
[2]
  EC50: 224 nM
[3]; KOR, GloSensor versus Tango
  G-Protein Bias factor (IC50 -Glosensor/- EC50 - Tango): 2.33
[3]; Table 2, KOR, read-out: GloSensor Assay (pIC50) (converted)
  IC50: 1.05 nM
[3]; given as Log IC50 (negative values), agonist activity, inhibition of FSK-stimulated cAMP, read-out: GloSensor Assay (Log IC50) KOR (converted)
  IC50: 5.01 nM
[3]; read-out: agonist at KOR (pIC50) (converted)
  IC50: < 31.6 nM
[4]; [9]
  mechanical pain (mechanical hyperalgesia, Von frey hair test), chronic administration: significantly improved
  thermal hyperalgesia (Hargreaves test), chronic administration: significantly improved
[4]; chronic administration
  improvement in both pain behaviors relative to duloxetine: better improvement in both pain behaviors as compared to duloxetine
[5]; 8abd 10 mg/kg p.o., U50488 5 mg/kg i.p., Hargreaves
  CCI-induced thermal hyperalgesia, acute administration: robustly inhibited
[5]; 8abd 10 mg/kg p.o., U50488 5 mg/kg i.p., von frey
  CCI-induced mechanical pain, acute administration: robustly inhibited
[5]; [10]
  CCI-induced mechanical pain, sub-chronic administration: significantly blocked
  CCI-induced thermal hyperalgesia, sub-chronic administration: significantly blocked
[6]; 10 mg/kg or 5 mg/kg p.o., in comparison to vehicle treated mice
  tail flick latency time: significantly increased
[6]; 8abd 5 and 10 mg/kg p.o., U50488 5 mg/kg i.p.
  duration of the analgesic effect: comparable to U50488
[6]; NBN 5 mg/kg i.p. (legend: 10 mg/kg i.p.)
  analgesic effect in presence of selective KOR antagonist Norbinaltrophamine (NBN): completely blocked
[7]
  IC50: > 10000 nM
[8]
  analgesic activity (paw withdrawal latency): exhibited analgesic activity
